The values that follow are results of earlier work, collected in patent US6338859B1, “Polymeric micelle compositions” (Labopharm Inc., priority 2000, dated 2002).

“And” between values parts separate entries of the source, which are not always exact repeats. Equal entries are not always repeated. Where two headings read alike, the source gives them in different places. Marks after values point to notes of the source that are not given here.

Assay in data set [1]: not given
This is another data set of the same source.

Setting [2] is: polymer PEO-PBLA, physical entrapment.
Where [3] appears, read: polymer PEO-P(Asp), chemical bonding.
Setting [4] is: polymer PEO-PE, physical entrapment.

Regarding `COc1ccc2c(c1)c(CC(=O)O)c(C)n2C(=O)c1ccc(Cl)cc1` [Indomethacin], the “Micelle size with drug” value reads like this: under setting [2], 25-29 nm; (polymer PEO-PCL, physical entrapment) 145-165 nm and 114-156 nm.
With `N.N.[Cl][Pt][Cl]` [Cisplatin], the “Micelle size with drug” value under setting [3] was 16 nm.
With `O=C(CCCN1CCC(O)(c2ccc(Cl)cc2)CC1)c1ccc(F)cc1` [Haloperidol], the “Micelle size with drug” value (polymer PEO-PPO-PEO, physical entrapment) is on record as 15 nm.
Take Gd-DTPA-PE: under setting [4], the “Micelle size with drug” value is given as 20 nm.
On to `COc1cccc2c1C(=O)c1c(O)c3c(c(O)c1C2=O)C[C@@](O)(C(=O)CO)C[C@@H]3O[C@H]1C[C@H](N)[C@H](O)[C@H](C)O1` [DOX, doxorubicin], for which the “Micelle size with drug” value under setting [3] is 14-131 nm and 17-42 nm; the “Micelle size with drug” value (polymer PEO-P(Asp), chemical bonding, listed as Doxirubicin (DOX)) is recorded as 50 nm; the “Micelle size with drug” value under setting [2] was 30 nm and 37 nm. In data set [1] (in PEO-PBLA after freeze drying and reconstitution in water, iodide quenching), the “retention of drug in micelles” value was “retained”.
For KRN-5500, the “Micelle size with drug” value (polymer PEO-(C16, BLA), physical entrapment, after the sonication of PEO(C16, BLA) aggregates) is recorded as 71* nm.
As to `Cc1cc(N)c2ccccc2[n+]1CCCCCCCCCC[n+]1c(C)cc(N)c2ccccc21` [Dequalinium], the “Micelle size with drug” value under setting [4] is on record as 15 nm.
Regarding `C[C@@H]1[C@H](O)[C@@H](C)/C=C/C=C/C=C/C=C/C=C/C=C/C=C/[C@H](O[C@@H]2O[C@H](C)[C@@H](O)[C@H](N)[C@@H]2O)C[C@@H]2O[C@](O)(C[C@@H](O)C[C@@H](O)[C@H](O)CC[C@@H](O)C[C@@H](O)CC(=O)O[C@H]1C)C[C@H](O)[C@H]2C(=O)O` [Amphotericin B], the “Micelle size with drug” value under setting [2] is given as 26 nm. In data set [1] (after incorporation into PEO-PBLA micelles), the hemolytic activity result was “decrease”.
For the molecule ^111In-DTPA-SA, under setting [4], the “Micelle size with drug” value is listed as 20 nm.

B1: Soybean trypsin inhibitor: Soybean trypsin inhibitor physically entrapped in PEO-PE micelles (protein, UniProt P01070 25-205, looked up)
Trypsin inhibitor A: DFVLDNEGNPLENGGTYYILSDITAFGGIRAAPTGNERCPLTVVQSRNELDKGIGTIISSPYRIRFIAEGHPLSLKFDSFAVIMLCVGIPTEWSVVEDLPEGPAVKIGENKDAMDGWFRLERVSDDEFNNYKLVFCPQQAEDDKCGDIGISIDHDDGTRRLVVSKNKPLVVQFQKLDKESL
modifications: entrapped in PEO-PE micelles
In the case of B1, the “Micelle size with drug” value under setting [4] is 15 nm.
